Where “and” joins values, the source holds several entries; their conditions need not be identical. Equal entries are not always repeated. Marks after values point to notes of the source that are not given here.
Experiments:
influenza virus [1] = details: cited from earlier work
[2] = test system: Influenza A/Duck/MN/152518 (H5N1); type: in vivo, BALB/c mice
[3] = Toxicity controls: uninfected mice treated in parallel; details: for Tox Controls Surv/Total: 21 days
[4] = Phase I clinical study in healthy human volunteers, plasma concentration after intravenous and intramuscular administration
[5] = Plasma levels after i.v. administration in mice
influenza virus [6] = details: cited from earlier work; remark: listed apart in the source
influenza infection = details: oral administration over a period of days; cited from earlier work
[7] = intramuscular, healthy human volunteers

## CCC(CC)C(NC(C)=O)[C@@H]1[C@H](O)[C@@H](C(=O)O)C[C@H]1NC(=N)N (stereo partly drawn) [Peramivir, (1S,2S,3R,4R)-3-(1-Acetamido-2-ethylbutyl)-4-guanidino-2-hydroxycyclopentane-carboxylic acid]
Influenza virus [1]
  Activity against the influenza virus in vitro: marked activity
[2]; 21 days
  Infected, Treated Mice Surv/Total: 10/10** and 5/10
[2]; mouse, in vivo
  Effect on lung parameters: moderately inhibitory
  Infected animals surviving the infection: 100%
  Protection of mice (prevention of deaths, lessening of lung consolidation, inhibition of lung virus titers): significantly protective
[3]; 3 mg/kg i.v.
  Tox Controls Surv/Total: 3/3
[3]; 10 mg/kg i.v.
  Tox Controls Surv/Total: 3/3
[3]; 20 mg/kg i.v.
  Tox Controls Surv/Total: 3/3
[3]; i.v., run in parallel
  Survival and weight of toxicity controls: all survived and gained weight
  Tolerability in toxicity controls: well tolerated
[4]; human, plasma, iv
  half-life: > 12 h
[4]; [7]
  Kinetics of plasma concentrations: linear kinetics
  Plasma half life: unusually extended
[4]; intravenous, healthy human volunteers
  Kinetics of plasma concentrations: linear kinetics
[5]
  Time at relatively high levels in the plasma: at least 6 hours
Influenza virus [6]
  Activity against the influenza virus in experimentally infected mice: marked activity
Influenza infection
  Therapeutic effect on influenza infection in humans: suboptimal therapeutic effect

Reference: US12121503B2, “Antiviral treatments” (priority 2006, dated 2024)
